Data from the supplement of paper PMC10307832.

Assays:
Assay in all cases: relative viability (nuclei count vs DMSO), 5 days (fraction); higher = more cells survive
[1] = compound: C1COCCN1C2=NC(=NC3=C2OC4=C3C=CC=N4)C5=CC(=CC=C5)NC(=O)C6=CN=C(C=C6)N + Cc1cc(Nc2cc(N3CCN(C)CC3)nc(Sc3ccc(NC(=O)C4CC4)cc3)n2)n[nH]1 [Tozasertib] (partner 0.1 µM)
Procedure, shortened: (§1)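 One day after seeding in 1536-well plates, lung cancer cell lines were dosed by pin tool. Dosing was either single-drug or a fixed anchor-drug dose plus five library-drug doses (not always all listed) in √10 steps. After 5 days, nuclei were stained in one fix-and-stain step and counted on 4× images, and relative viability is the nuclei count of treated wells over that of vehicle wells, given as the median of duplicate plates.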

SGI-1776 + Trametinib = compound: CN1CCC(CNc2ccc3ncc(-c4cccc(OC(F)(F)F)c4)n3n2)CC1 [SGI-1776] + CC(=O)Nc1cccc(-n2c(=O)n(C3CC3)c(=O)c3c(Nc4ccc(I)cc4F)n(C)c(=O)c(C)c32)c1 [Trametinib] (partner 0.02 µM)
Procedure, shortened: as §1

SGI-1776 + Pemetrexed = compound: CN1CCC(CNc2ccc3ncc(-c4cccc(OC(F)(F)F)c4)n3n2)CC1 [SGI-1776] + Nc1nc2[nH]cc(CCc3ccc(C(=O)N[C@@H](CCC(=O)O)C(=O)O)cc3)c2c(=O)[nH]1 [Pemetrexed] (partner 0.2 µM)
Procedure, shortened: as §1

Entinostat + Dasatinib = compound: Nc1ccccc1NC(=O)c1ccc(CNC(=O)OCc2cccnc2)cc1 [Entinostat] + Cc1nc(Nc2ncc(C(=O)Nc3c(C)cccc3Cl)s2)cc(N2CCN(CCO)CC2)n1 [Dasatinib] (partner 0.075 µM)
Procedure, shortened: as §1

Cell Line | relative viability ([1]; first compound 0.02 µM) | relative viability ([1]; first compound 0.06325 µM) | relative viability ([1]; first compound 0.2 µM) | relative viability ([1]; first compound 0.6325 µM) | relative viability ([1]; first compound 2 µM) | relative viability (SGI-1776 + Trametinib; first compound 0.08 µM) | relative viability (SGI-1776 + Trametinib; first compound 0.8 µM) | relative viability (SGI-1776 + Trametinib; first compound 2.53 µM) | relative viability (SGI-1776 + Trametinib; first compound 8 µM) | relative viability (SGI-1776 + Pemetrexed; first compound 0.08 µM) | relative viability (SGI-1776 + Pemetrexed; first compound 0.8 µM) | relative viability (SGI-1776 + Pemetrexed; first compound 2.53 µM) | relative viability (SGI-1776 + Pemetrexed; first compound 8 µM) | relative viability (Entinostat + Dasatinib; first compound 0.02 µM) | relative viability (Entinostat + Dasatinib; first compound 0.06325 µM) | relative viability (Entinostat + Dasatinib; first compound 0.2 µM) | relative viability (Entinostat + Dasatinib; first compound 0.6325 µM) | relative viability (Entinostat + Dasatinib; first compound 2 µM)
HOP-62 | 0.358 | 0.396 | 0.337 | 0.312 | 0.225 | 0.384 | 0.359 | 0.437 | 0.367 | 0.306 | 0.363 | 0.325 | 0.31 | 0.718 | 0.682 | 0.588 | 0.29 | 0.161
LC-2-ad | 0.428 | 0.499 | 0.46 | 0.473 | 0.392 | 0.885 | 0.926 | 0.931 | 0.822 | 0.286 | 0.288 | 0.285 | 0.254 | 0.516 | 0.533 | 0.428 | 0.222 | 0.165
LCLC-97TM1 | 0.266 | 0.214 | 0.155 | 0.405 | 0.261 | 0.216 | 0.205 | 0.195 | 0.199 | 0.182 | 0.2 | 0.143 | 0.182 | 0.882 | 0.646 | 0.748 | 0.782 | 0.615
LCLC-103H | 0.537 | 0.511 | 0.471 | 0.46 | 0.35 | 0.658 | 0.689 | 0.633 | 0.642 | 0.488 | 0.446 | 0.452 | 0.466 | 0.478 | 0.458 | 0.48 | 0.362 | 0.224
LK-2 | 0.172 | 0.156 | 0.167 | 0.154 | 0.176 | 0.778 | 0.69 | 0.63 | 0.708 | 0.295 | 0.352 | 0.291 | 0.201 | 0.292 | 0.389 | 0.388 | 0.286 | 0.301
LOU-NH91 | 0.591 | 0.738 | 0.649 | 0.652 | 0.465 | 0.808 | 0.766 | 0.806 | 0.695 | 0.371 | 0.371 | 0.405 | 0.446 | 0.565 | 0.607 | 0.574 | 0.566 | 0.509
LU99A | 0.277 | 0.276 | 0.231 | 0.21 | 0.173 | 0.62 | 0.594 | 0.542 | 0.515 | 0.176 | 0.218 | 0.178 | 0.189 | 0.529 | 0.577 | 0.451 | 0.477 | 0.439
LXF-289 | 0.177 | 0.181 | 0.156 | 0.145 | 0.119 | 0.68 | 0.64 | 0.668 | 0.606 | 0.875 | 1 | 0.808 | 0.9 | 0.209 | 0.261 | 0.177 | 0.178 | 0.185
NCI-H23 | 0.329 |  | 0.185 | 0.615 | 0.263 | 0.328 | 0.29 | 0.372 | 0.304 | 0.763 | 0.799 | 0.659 | 0.569 | 0.781 | 0.971 | 0.961 | 0.741 | 0.378
NCI-H322M | 0.535 | 0.49 | 0.471 | 0.401 | 0.338 | 0.524 | 0.506 | 0.485 | 0.487 | 0.648 | 0.65 | 0.59 | 0.504 | 0.271 | 0.274 | 0.275 | 0.298 | 0.313
NCI-H358 |  | 0.117 | 0.0984 | 0.099 | 0.0866 | 0.14 | 0.146 | 0.128 | 0.123 | 0.177 | 0.218 | 0.168 | 0.161 | 0.181 | 0.136 | 0.158 | 0.115 | 0.109
NCI-H441 | 0.609 | 0.496 | 0.416 | 0.401 | 0.299 | 0.497 | 0.51 | 0.5 | 0.294 | 0.276 | 0.258 | 0.299 | 0.26 | 0.705 | 0.602 | 0.557 | 0.259 | 0.124
NCI-H460 | 0.465 | 0.509 | 0.209 | 0.392 | 0.0489 | 0.127 | 0.162 | 0.208 | 0.154 | 0.0693 | 0.062 | 0.0616 | 0.0609 | 0.52 | 0.548 | 0.235 | 0.0904 | 0.0466
NCI-H520 | 0.431 | 0.437 | 0.413 | 0.479 | 0.327 | 0.773 | 0.816 | 0.686 | 0.544 | 0.784 | 0.692 | 0.553 | 0.348 | 0.248 | 0.335 | 0.238 | 0.325 | 0.286
NCI-H522 | 0.491 | 0.497 | 0.472 | 0.374 | 0.541 | 0.81 | 0.789 | 0.723 | 0.798 | 0.953 | 0.867 | 0.98 | 0.889 | 0.882 | 1.14 | 1.16 | 1.23 | 0.795
NCI-H727 | 0.668 | 0.839 | 0.599 | 0.467 | 0.524 | 0.454 | 0.38 | 0.391 | 0.372 |  |  |  |  | 0.475 | 0.419 | 0.412 | 0.219 | 0.273
NCI-H1563 |  |  |  |  |  |  |  |  |  | 0.929 | 0.847 | 0.765 | 0.726 | 0.465 | 0.48 | 0.438 | 0.461 | 0.42
NCI-H1623 | 0.376 | 0.457 | 0.411 | 0.432 | 0.461 |  |  |  |  |  |  |  |  | 0.644 | 0.525 | 0.478 | 0.412 | 0.366
NCI-H1648 | 0.468 | 0.48 | 0.473 |  | 0.617 | 0.397 | 0.441 | 0.415 | 0.398 | 0.617 | 0.868 | 0.688 | 0.683 |  |  |  |  | 
NCI-H1792 |  |  |  |  |  | 0.446 | 0.446 | 0.437 | 0.324 | 0.965 | 0.754 | 0.745 | 0.649 | 0.692 | 0.802 | 0.825 | 0.452 | 0.402
